Experimental data as given in PubChem BioAssay (NCI).
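Growth conditions: 96-well plates. Treatment: test compound, 48 hours, 5 concentrations. Analysis: linear interpolation between bracketing concentrations; unreached endpoints set to highest concentration. TGI denotes the concentration required for complete inhibition of growth.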

How the values were obtained:
Assay in all cases: growth of human tumour cells (NCI), 48 h
OVCAR-4 ovarian = test system: OVCAR-4 ovarian
OVCAR-8 ovarian = test system: OVCAR-8 ovarian
OVCAR-5 ovarian = test system: OVCAR-5 ovarian
T-47D breast = test system: T-47D breast
DU-145 prostate = test system: DU-145 prostate
COLO 205 colon = test system: COLO 205 colon
MDA-MB-435 = test system: MDA-MB-435
EKVX NSCLC = test system: EKVX NSCLC
MDA-N = test system: MDA-N
PC-3 prostate = test system: PC-3 prostate
HT29 colon = test system: HT29 colon
SF-539 CNS = test system: SF-539 CNS
CCRF-CEM leukemia = test system: CCRF-CEM leukemia
LOX IMVI melanoma = test system: LOX IMVI melanoma
SNB-75 CNS = test system: SNB-75 CNS
MALME-3M melanoma = test system: MALME-3M melanoma
ACHN renal = test system: ACHN renal
UO-31 renal = test system: UO-31 renal
NCI-H460 lung = test system: NCI-H460 lung
SK-OV-3 ovarian = test system: SK-OV-3 ovarian
SF-268 CNS = test system: SF-268 CNS
HCT-116 colon = test system: HCT-116 colon
K-562 leukemia = test system: K-562 leukemia
UACC-257 melanoma = test system: UACC-257 melanoma
HCT-15 colon = test system: HCT-15 colon
NCI-H23 lung = test system: NCI-H23 lung
NCI-H226 lung = test system: NCI-H226 lung
MDA-MB-231 breast = test system: MDA-MB-231 breast
HCC-2998 colon = test system: HCC-2998 colon
NCI/ADR-RES ovarian = test system: NCI/ADR-RES ovarian
KM12 colon = test system: KM12 colon
MCF7 breast = test system: MCF7 breast
SW-620 colon = test system: SW-620 colon
SK-MEL-28 melanoma = test system: SK-MEL-28 melanoma
RXF 393 renal = test system: RXF 393 renal
A549 NSCLC = test system: A549 NSCLC
U251 CNS = test system: U251 CNS
UACC-62 melanoma = test system: UACC-62 melanoma
SF-295 CNS = test system: SF-295 CNS
NCI-H522 lung = test system: NCI-H522 lung
SNB-19 CNS = test system: SNB-19 CNS
OVCAR-3 ovarian = test system: OVCAR-3 ovarian
HOP-62 NSCLC = test system: HOP-62 NSCLC
TK-10 renal = test system: TK-10 renal
SK-MEL-5 melanoma = test system: SK-MEL-5 melanoma
HS 578T breast = test system: HS 578T breast
IGROV1 ovarian = test system: IGROV1 ovarian
CAKI-1 renal = test system: CAKI-1 renal
BT-549 breast = test system: BT-549 breast
SK-MEL-2 melanoma = test system: SK-MEL-2 melanoma
HOP-92 NSCLC = test system: HOP-92 NSCLC
786-0 renal = test system: 786-0 renal
SN12C renal = test system: SN12C renal
MOLT-4 leukemia = test system: MOLT-4 leukemia
RPMI-8226 leukemia = test system: RPMI-8226 leukemia
HL-60(TB) leukemia = test system: HL-60(TB) leukemia
M14 melanoma = test system: M14 melanoma

Measured: TGI

COC1(OC)CC(CO)(COc2cc(Cl)nc(N)n2)C1
> 100 µM: OVCAR-4 ovarian | OVCAR-8 ovarian | OVCAR-5 ovarian | T-47D breast | DU-145 prostate | COLO 205 colon | MDA-MB-435 | EKVX NSCLC | MDA-N | PC-3 prostate | HT29 colon | SF-539 CNS | CCRF-CEM leukemia | LOX IMVI melanoma | SNB-75 CNS | MALME-3M melanoma | ACHN renal | UO-31 renal | NCI-H460 lung | SK-OV-3 ovarian | SF-268 CNS | HCT-116 colon | K-562 leukemia | UACC-257 melanoma | HCT-15 colon | NCI-H23 lung | NCI-H226 lung | MDA-MB-231 breast | HCC-2998 colon | NCI/ADR-RES ovarian | KM12 colon | MCF7 breast | SW-620 colon | SK-MEL-28 melanoma | RXF 393 renal | A549 NSCLC | U251 CNS | UACC-62 melanoma | SF-295 CNS | NCI-H522 lung | SNB-19 CNS | OVCAR-3 ovarian | HOP-62 NSCLC | TK-10 renal | SK-MEL-5 melanoma | HS 578T breast | IGROV1 ovarian | CAKI-1 renal | BT-549 breast | SK-MEL-2 melanoma | HOP-92 NSCLC | 786-0 renal | SN12C renal | MOLT-4 leukemia

C=C1c2c(n(S(=O)(=O)c3ccccc3)c3ccccc23)[C@@]2(C(=O)OC)CC3C=CC2N1C3
> 100 µM: OVCAR-4 ovarian | OVCAR-8 ovarian | OVCAR-5 ovarian | T-47D breast | DU-145 prostate | COLO 205 colon | MDA-MB-435 | EKVX NSCLC | MDA-N | PC-3 prostate | HT29 colon | SF-539 CNS | CCRF-CEM leukemia | LOX IMVI melanoma | SNB-75 CNS | MALME-3M melanoma | ACHN renal | NCI-H460 lung | SK-OV-3 ovarian | SF-268 CNS | HCT-116 colon | K-562 leukemia | UACC-257 melanoma | HCT-15 colon | NCI-H23 lung | NCI-H226 lung | MDA-MB-231 breast | HCC-2998 colon | NCI/ADR-RES ovarian | KM12 colon | MCF7 breast | SW-620 colon | SK-MEL-28 melanoma | RXF 393 renal | A549 NSCLC | U251 CNS | UACC-62 melanoma | RPMI-8226 leukemia | SF-295 CNS | HL-60(TB) leukemia | NCI-H522 lung | SNB-19 CNS | OVCAR-3 ovarian | HOP-62 NSCLC | TK-10 renal | IGROV1 ovarian | CAKI-1 renal | BT-549 breast | SK-MEL-2 melanoma | M14 melanoma | HOP-92 NSCLC | 786-0 renal | SN12C renal | MOLT-4 leukemia
